Results from patent US20250041461A1, “[177LU] LUTETIUM-PSMA I&T COMPOSITION AND DOSIMETRY, KIT, METHOD OF MAKING, AND METHOD OF USING THEREOF” (Curium US LLC, priority 2023, published 2025).
Several values for one entry are separate records, joined by “and”; a condition that tells them apart may be missing. Identical values can stand only once.

Tests used:
[1] = Eclipse sub-study, cycle 3 dosimetry (16 patients); format: in vivo, human; conditions: cycle 3, 16 patients
Procedure: To evaluate potential changes in the tracer's kinetics and uptake after multiple treatment cycles, 16 of the 27 patients included in the dosimetry sub study, were imaged at both cycle 1 and cycle 3. Among these, at cycle 3, three patients were imaged at all 4 timepoints and the other 13 were imaged at one or two timepoints only (24 h, 48 h or both 24 h and 48 h) (Table 7 in Appendix 1). For these 13 patients, the TACs obtained at cycle 1 were used for each source organ and scaled to the normalized activity value(s) measured at Cycle 3. For patients imaged at two timepoints, the TACs were preferably scaled using the average scaling factor between the two timepoints.
A subgroup of 16 out of the 27 patients underwent and additional dosimetry assessment at Cycle 3. Among these, three patients had dosimetry performed based on images taken at 4 timepoints, while the remaining patients had dosimetry performed at 1 or 2 imaging timepoints only, as described in Section 4.4.1.
The organ absorbed radiation doses were compared to the mean organ absorbed radiation doses from Cycle 1 for the same subset of patients, as shown in Table 5. The dosimetry estimations obtained at cycle 3 align closely with those from cycle 1. At this timepoint, the kidneys had the highest dose (0.49±0.19 Gy/GBq) but, for most organs, the estimated absorbed dose values were similar to or lower compared to cycle 1. […]

[2] = Dosimetry sub-study, first 6 patients, cycle 1 (SPECT/CT, TIAC, OLINDA 2.2.3); format: in vivo, human; conditions: for projected cumulative absorbed dose to the kidneys after 6 cycles: 7.4 GBq per cycle, number of cycles x absorbed dose at cycle 1
Procedure: Six subjects were administered a target dose of 7.4 GBq (mean 7.52±0.16 GBq) of ^177Lu-PSMA-I&T. Following the infusion, subjects underwent single photon emission computed tomography (SPECT)/computed tomography (CT) imaging at four timepoints (4 h, 24 h, 48 h, 168 h). Image data were analysed to compute time integrated activity coefficients (TIAC) in each organ of interest and/or with appreciable and meaningful ^177Lu-PSMA-I&T activity above background which included kidneys, bladder, liver, lumbar vertebrae L2-L4, lacrimal glands, salivary glands, intestine and whole body. To compute subject-specific organ doses, organ-level TIAC data were entered into Organ Level Internal Dose Assessment, OLINDA 2.2.3 and resulting organ doses for each target organ and whole-body effective dose were collated and averaged.
Patients received SPECT/CT imaging (anatomical coverage included the salivary gland and extended through the pelvis) following the injection of 7.4 (+/−10%) GBq of ^177Lu-PSMA-I&T (detailed injected doses are reported). All patients completed the first treatment cycle and the acquisition of images was carried out without any protocol deviation.
The imaging data was analyzed using Invicro's VivoQuant software, a validated software used in a 21 CFR § 11-compliant workflow. The general quantification approach was based on the principles detailed in MIRD Pamphlet No. 16 (Siegel J, Thomas S, Stubbs J, et al. MIRD pamphlet no. 16: Techniques for quantitative radiopharmaceutical biodistribution data acquisition and analysis for use in human radiation dose estimates. J Nucl Med. 1999; 40:37S-61S and MIRD Primer for Absorbed Dose Calculations, Revised Ed. J Nucl Med. 1991), No 23 (Dewaraja Y K, Frey E C, Sgouros G, et al. MIRD pamphlet No. 23: quantitative SPECT for patient-specific 3-dimensional dosimetry in internal radionuclide therapy. J Nucl Med. 2012; 53(8):1310-1325), and No 26 (Ljungberg M, Celler A, Konijnenberg M W, et al. MIRD Pamphlet No. 26: Joint EANM/MIRD Guidelines for Quantitative ^177Lu SPECT Applied for Dosimetry of Radiopharmaceutical Therapy. J Nucl Med. 2016; 57(1):151-162), as appropriate.
Each SPECT image was co-registered with its corresponding CT. Image calibration was performed to convert the counts measured on the SPECT images to activity (Bq) (Ljungberg et al. MIRD Pamphlet No. 26: Joint EANM/MIRD Guidelines for Quantitative ^177Lu SPECT Applied for Dosimetry of Radiopharmaceutical Therapy. J Nucl Med. 2016; 57(1):151-162). The same SPECT/CT system was used in each patient for the entirety of the dosimetry study.
Regions of interest (kidneys, bladder, liver, lumbar vertebrae L2-L4, lacrimal glands, salivary glands and whole body) were drawn on each dataset by a trained image analyst. Lumbar vertebrae L2-L4 was delineated on the CT images (Hindorf C, Glatting G, Chiesa C, Linden O, Flux G, Committee ED. EANM Dosimetry Committee guidelines for bone marrow and whole-body dosimetry. Eur J Nucl Med Mol Imaging. 2010; 37(6):1238-1250) to derived red marrow doses. For kidneys, an ROI was drawn on the SPECT image to include all the uptake seen in the kidneys. Similarly for lacrimal glands, all the uptake observed on the SPECT image at the lacrimal glands location was segmented.
Time-activity curves of the activity in each ROI as a function of time were plotted. These curves were normalized by the known injected activity to arrive at units of fraction of injected activity. Calculations of time-integrated activity coefficient (TIAC, in units of hours) were performed for each region of interest listed above.
Clearance of the tracer was derived from a data-appropriate fit of each organ TAC. The curve fit was optimized using the Akaike information criterion (AIC) and checked visually by an image scientist. Depending on the shape of the TAC, the data was fitted with the sum of one, two or three exponentials or using a rise and fall model. […]

In the case of `O=C([O-])CC[C@H](NC(=O)N[C@@H](CCCCNC(=O)CCCCCCC(=O)NCCCC[C@@H](NC(=O)[C@@H](Cc1ccccc1)NC(=O)[C@@H](Cc1ccc(O)c(I)c1)NC(=O)CC[C@H](C(=O)[O-])N1CCN(CC(=O)[O-])CCN(CC(=O)[O-])CCN(CC(=O)[O-])CC1)C(=O)[O-])C(=O)[O-])C(=O)[O-].[177Lu+3].[H+].[H+].[H+].[H+].[H+]` [^177Lu-PSMA I&T, (3S,7S,26R,29R,32R,37R)-29-benzyl-32-(4-hydroxy-3-iodobenzyl)-5,13,20,28,31,34-hexaoxo-37-(4,7,10-tris(carboxymethyl)-1,4,7,10-tetraazacyclododecan-1-yl)-4,6,12,21,27,30,33-heptaazaheptatriacontane-1,3,7,26,37-pentacarboxylic acid; lutetium-177 (III)], the “absorbed dose, kidneys” value [1] is reported as 0.49±0.19 Gy/GBq, the “Absorbed Dose, Adrenals, Mean” value ([2]; 6 patients, cycle 1) is reported as 0.02 Gy/GBq and the “Absorbed Dose, Brain, Mean” value ([2]; 6 patients, cycle 1) is reported as 0.01 Gy/GBq. For the same compound, the “Absorbed Dose, Esophagus, Mean” value ([2]; 6 patients, cycle 1) was 0.01 Gy/GBq, the “Absorbed Dose, Eyes, Mean” value ([2]; 6 patients, cycle 1) was 0.01 Gy/GBq and the “Absorbed Dose, Gallbladder wall, Mean” value ([2]; 6 patients, cycle 1) was 0.02 Gy/GBq. The “Absorbed Dose, Heart wall, Mean” value ([2]; 6 patients, cycle 1) was 0.01 Gy/GBq, the “Absorbed Dose, Kidneys, Mean” value ([2]; 6 patients, cycle 1) was 0.46 Gy/GBq and the “Absorbed Dose, Left colon, Mean” value ([2]; 6 patients, cycle 1) was 0.39 Gy/GBq. For the same compound, the “Absorbed Dose, Liver, Mean” value ([2]; 6 patients, cycle 1) was 0.03 Gy/GBq, the “Absorbed Dose, Lungs, Mean” value ([2]; 6 patients, cycle 1) was 0.01 Gy/GBq and the “Absorbed Dose, Osteogenic cells, Mean” value ([2]; 6 patients, cycle 1) was 0.02 Gy/GBq. For the same compound, the “Absorbed Dose, Pancreas, Mean” value ([2]; 6 patients, cycle 1) was 0.02 Gy/GBq, the “Absorbed Dose, Prostate, Mean” value ([2]; 6 patients, cycle 1) was 0.02 Gy/GBq and the “Absorbed Dose, Rectum, Mean” value ([2]; 6 patients, cycle 1) was 0.37 Gy/GBq. The “Absorbed Dose, Red Marrow, Mean” value ([2]; 6 patients, cycle 1) was 0.02 Gy/GBq, the “Absorbed Dose, Right colon, Mean” value ([2]; 6 patients, cycle 1) was 0.21 Gy/GBq and the “Absorbed Dose, Salivary Glands, Mean” value ([2]; 6 patients, cycle 1) was 0.10 Gy/GBq. For the same compound, the “Absorbed Dose, Small intestine, Mean” value ([2]; 6 patients, cycle 1) was 0.05 Gy/GBq, the “Absorbed Dose, Spleen, Mean” value ([2]; 6 patients, cycle 1) was 0.02 Gy/GBq and the “Absorbed Dose, Stomach Wall, Mean” value ([2]; 6 patients, cycle 1) was 0.01 Gy/GBq. The “Absorbed Dose, Testes, Mean” value ([2]; 6 patients, cycle 1) was 0.01 Gy/GBq, the “Absorbed Dose, Thymus, Mean” value ([2]; 6 patients, cycle 1) was 0.01 Gy/GBq and the “Absorbed Dose, Thyroid, Mean” value ([2]; 6 patients, cycle 1) was 0.01 Gy/GBq. The “Absorbed Dose, Total Body, Mean” value ([2]; 6 patients, cycle 1) was 0.02 Gy/GBq, the “Absorbed Dose, Urinary Bladder wall, Mean” value ([2]; 6 patients, cycle 1) was 0.37 Gy/GBq and the “absorbed dose, kidneys” value ([2]; 6 patients, cycle 1) was 0.46±0.23 Gy/GBq. For the same compound, the “absorbed dose, lacrimal glands” value ([2]; 6 patients, cycle 1) was 0.77±0.25 Gy/GBq, the “absorbed dose, left colon” value ([2]; 6 patients, cycle 1) was 0.39±0.32 Gy/GBq and the “absorbed dose, rectum” value ([2]; 6 patients, cycle 1) was 0.37±0.31 Gy/GBq. For the same compound, the “absorbed dose, right colon” value ([2]; 6 patients, cycle 1) was 0.21±0.17 Gy/GBq, the “absorbed dose, salivary glands” value ([2]; 6 patients, cycle 1) was 0.10±0.06 Gy/GBq and the “absorbed dose, urinary bladder wall” value ([2]; 6 patients, cycle 1) was 0.37±0.20 Gy/GBq. The “Whole-body time integrated activity coefficient, mean” value ([2]; 6 patients, cycle 1, 7.4 GBq, SD 6.7) was 16.6 h, the “projected cumulative absorbed dose to the kidneys after 6 cycles” value ([2]; 6 patients) was 20.4±10.2 Gy and the “projected cumulative absorbed dose to the kidneys after 6 cycles” value ([2]; 6 patients, listed as 177Lu-PSMA-I&T) was 20.4 Gy. The “risk of kidney toxicities with 6 treatment cycles” value ([2]; conclusion from dosimetry results) was “possible without the risk of kidney toxicities”, the “Effective Dose Cycle 1” value ([2]; individual patients (one per Subject ID)) was 9.03E−02 mSv/MBq and 3.11E−02 mSv/MBq and 1.11E−01 mSv/MBq and 6.97E−02 mSv/MBq and 8.11E−02 mSv/MBq and 2.68E−02 mSv/MBq and the “Kidneys Absorbed Dose (Gy/GBq)” value ([2]; individual patients (one per Subject ID), cycle 1) was 0.27 Gy/GBq and 0.22 Gy/GBq and 0.48 Gy/GBq and 0.64 Gy/GBq and 0.34 Gy/GBq and 0.81 Gy/GBq. The “Kidneys Absorbed Dose (Gy)” value ([2]; individual patients (one per Subject ID), cycle 1, actual injected dose) was 2.03 Gy and 1.68 Gy and 3.62 Gy and 4.87 Gy and 2.56 Gy and 5.82 Gy, the “Kidneys Absorbed Dose (Gy) Assuming 7.4 GBq per cycle” value ([2]; individual patients (one per Subject ID), one cycle) was 4.8 Gy and 2.5 Gy and 6.0 Gy and 2.0 Gy and 1.7 Gy and 3.6 Gy and the “Extrapolation of Absorbed Dose to 6 Cycles (Gy) Assuming 7.4 GBq per cycle” value ([2]; kidneys, individual patients (one per Subject ID)) was 28.5 Gy and 15.0 Gy and 35.8 Gy and 11.8 Gy and 9.9 Gy and 21.3 Gy. The “Extrapolation of Absorbed Dose to 6 Cycles (Gy) Assuming 7.4 GBq per cycle, mean” value ([2]; kidneys, mean of 6 patients) was 20.4 Gy, the “Kidneys Absorbed Dose (Gy), Mean” value ([2]; mean of 6 patients, cycle 1) was 3.43 Gy and the “Kidneys Absorbed Dose (Gy/GBq), Mean” value ([2]; mean of 6 patients, cycle 1) was 0.46 Gy/GBq. For the same compound, the “Whole Body TIAC (time integrated activity coefficient), Mean” value ([2]; mean of 6 patients, cycle 1) was 16.6 h and the “Kidneys Absorbed Dose (Gy) Assuming 7.4 GBq per cycle, mean” value ([2]; mean of 6 patients, one cycle) was 3.4 Gy.
